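Values below derive from 48-hour exposures of cells grown in 96-well plates, with endpoints linearly interpolated between the two concentrations bracketing the appropriate inhibition level. GI50 marks 50% less growth.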 Calls of active or inactive are those of the source. Rule as the data show it: active = GI50 up to about 1.1 µM and inactive = higher.
Assays:
Experiment in all cases: NCI-60 cell line screen, 48 h
[1] = test system: ACHN
[2] = test system: CAKI-1
[3] = test system: EKVX
[4] = test system: HOP-62
[5] = test system: HT-29
[6] = test system: Hs-578T
[7] = test system: M14
[8] = test system: MCF7
[9] = test system: MDA-MB-435
[10] = test system: MDA-N
[11] = test system: MOLT-4
[12] = test system: NCI-H226
[13] = test system: NCI-H460
[14] = test system: NCI-H522
[15] = test system: SF-539
[16] = test system: SK-MEL-2
[17] = test system: SNB-75
[18] = test system: SW-620
[19] = test system: T47D

Measured: GI50

CCc1nc2c(c(N(C)C)c1C(=O)OC)CCc1ccccc1-2
inactive: [1] 23 µM | [2] 51.1 µM | [3] 25.9 µM | [4] 24.8 µM | [5] 27.7 µM | [6] 51.1 µM | [7] 24 µM | [8] 14.4 µM | [9] 23.4 µM | [10] 26.2 µM | [11] 4.14 µM | [12] 21.5 µM | [13] 30.6 µM | [14] 17.9 µM | [15] 39.4 µM | [16] 17.8 µM | [17] 35.4 µM | [18] 32.8 µM | [19] 11 µM

O=C(CCOS(=O)(=O)CF)N1CCN(C(=O)CCOS(=O)(=O)CF)CC1
inactive: [1] 17.1 µM | [2] 5.36 µM | [3] > 100 µM | [4] 43.2 µM | [5] > 100 µM | [6] 22.2 µM | [7] 58.6 µM | [8] 18.6 µM | [9] > 100 µM | [10] > 100 µM | [11] 3.03 µM | [12] > 88.7 µM | [13] 5.27 µM | [14] 31.6 µM | [15] 28.8 µM | [16] > 100 µM | [17] 10.1 µM | [18] > 100 µM | [19] 43.6 µM

CN(C)Cc1ccc(C(C)(C)C)cc1-c1cc(C(C)(C)C)ccc1CN(C)C
inactive: [1] > 100 µM | [2] > 100 µM | [3] 39.2 µM | [4] > 100 µM | [5] 33 µM | [6] > 100 µM | [7] 20.8 µM | [8] 37.6 µM | [9] 55.6 µM | [10] 48.5 µM | [11] 40.2 µM | [12] > 100 µM | [13] 51.1 µM | [14] 50.5 µM | [15] > 100 µM | [16] 76.9 µM | [17] 88.1 µM | [18] > 100 µM | [19] 48.2 µM

CC1OCC2OC(C)OC(C3C4=C(CC(C)(C)CC4=O)OC4=C3C(=O)CC(C)(C)C4)C2O1 (centres undefined)
inactive: [1] > 100 µM | [2] > 100 µM | [3] > 100 µM | [4] > 100 µM | [5] > 100 µM | [6] > 100 µM | [7] > 100 µM | [8] > 100 µM | [9] > 100 µM | [10] > 100 µM | [11] > 100 µM | [12] > 100 µM | [13] > 100 µM | [14] > 100 µM | [15] > 100 µM | [16] > 100 µM | [17] > 100 µM | [18] > 100 µM | [19] > 100 µM

Nc1c2c(nc3cc(F)c(F)cc13)CCC2
inactive: [1] 32.6 µM | [2] 47.5 µM | [3] 52.1 µM | [4] > 100 µM | [5] 31.8 µM | [6] > 100 µM | [7] 61.5 µM | [8] 33.3 µM | [9] 54 µM | [10] 49 µM | [11] 30.5 µM | [12] 33.3 µM | [13] 22.1 µM | [14] 72.8 µM | [15] 46 µM | [16] > 100 µM | [17] 42.5 µM | [18] 29.2 µM | [19] 96.6 µM

CCOC(CN(C)C(=O)Nc1ccc(Cl)c(Cl)c1)OCC
inactive: [1] > 10 µM | [2] > 10 µM | [3] > 10 µM | [4] > 10 µM | [5] > 10 µM | [6] > 10 µM | [7] > 10 µM | [8] > 10 µM | [9] > 10 µM | [10] > 10 µM | [11] > 10 µM | [12] > 10 µM | [13] > 10 µM | [14] > 10 µM | [15] > 10 µM | [16] > 10 µM | [17] > 10 µM | [18] > 10 µM | [19] > 10 µM
